Results taken from ChEMBL document CHEMBL1201862, “PubChem BioAssay data set” (2004).
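Test compounds were applied to cells in 96-well plates for 48 hours at 5 doses. Here, GI50 denotes the concentration required for 50% inhibition of growth.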 Calls of active or inactive are those of the source. Cut-off read from the data, not from the text of the source: active = GI50 up to about 1.1 µM and inactive = higher.

What was measured:
Assay in all cases: growth of human tumour cells (NCI), 48 h
[1] = test system: 786-0
[2] = test system: A498
[3] = test system: CCRF-CEM
[4] = test system: COLO 205
[5] = test system: HCC 2998
[6] = test system: HCT-116
[7] = test system: HOP-62
[8] = test system: HT-29
[9] = test system: IGROV-1
[10] = test system: OVCAR-3
[11] = test system: OVCAR-8
[12] = test system: SF-539
[13] = test system: SK-MEL-28
[14] = test system: SK-MEL-5
[15] = test system: SNB-75
[16] = test system: U-251
[17] = test system: UACC-257
[18] = test system: UO-31

Measured: GI50

COc1ccccc1OCC(COC(=O)Nc1ccc(C)cc1)OC(=O)Nc1ccc(C)cc1 (stereo unspecified)
inactive: [1] 20 µM | [2] > 100 µM | [3] 18.2 µM | [4] 18.2 µM | [5] 20.6 µM | [6] 17.5 µM | [7] 38.5 µM | [8] 19.2 µM | [9] 26 µM | [10] 17.3 µM | [11] 17 µM | [12] 19.1 µM | [13] 23.7 µM | [14] 20.7 µM | [15] 23 µM | [16] 13.8 µM | [17] 19.3 µM | [18] 17.2 µM

CC1(C(=O)O)CCC[C@@]2(C)C1CC[C@@]1(C)c3cocc3CCC21 (stereo partly specified)
inactive: [1] 83.6 µM | [2] > 100 µM | [3] > 100 µM | [4] > 100 µM | [5] > 100 µM | [6] 72.8 µM | [7] > 100 µM | [8] > 100 µM | [9] > 100 µM | [10] > 100 µM | [11] > 100 µM | [12] > 100 µM | [13] > 100 µM | [14] > 100 µM | [15] > 100 µM | [16] 97.7 µM | [17] > 100 µM | [18] > 100 µM

CC1/C=C/[C@@]2(C)CCC(C(C)(C)O)C2C(O)C[C@](C)(O)/C=C/C1 (stereo partly specified)
inactive: [1] 21.7 µM | [2] > 100 µM | [3] > 100 µM | [4] > 100 µM | [5] > 100 µM | [6] > 100 µM | [7] > 100 µM | [8] > 100 µM | [9] > 100 µM | [10] > 100 µM | [11] > 100 µM | [12] > 100 µM | [13] > 100 µM | [14] > 100 µM | [15] > 100 µM | [16] > 100 µM | [17] > 100 µM | [18] > 100 µM

COC(=O)/C(=N\N)C(C(=O)C(=O)Nc1nnc(S)[nH]1)c1nc2ccc([N+](=O)[O-])cc2nc1O (stereo unspecified)
inactive: [1] > 100 µM | [2] > 100 µM | [3] > 100 µM | [4] > 100 µM | [5] > 100 µM | [6] > 100 µM | [7] > 100 µM | [8] > 100 µM | [9] > 100 µM | [10] > 100 µM | [11] > 100 µM | [12] > 100 µM | [13] > 100 µM | [14] > 100 µM | [15] > 100 µM | [16] > 100 µM | [17] > 100 µM | [18] > 100 µM

C[N+](C)(C)CC(=O)N/N=C(/Cc1nc2ccc(Cl)cc2nc1O)C1=NS(=O)(=O)c2cc(S(N)(=O)=O)c(Cl)cc2N1
inactive: [1] > 100 µM | [2] > 100 µM | [3] > 100 µM | [4] > 100 µM | [5] > 100 µM | [6] > 100 µM | [7] > 100 µM | [8] > 100 µM | [9] > 100 µM | [10] > 100 µM | [11] > 100 µM | [12] > 100 µM | [13] > 100 µM | [14] > 100 µM | [17] > 100 µM | [18] > 100 µM

O=c1[nH]nc(-c2ccccc2)c(-c2ccccc2)c1-n1nc(-c2ccccc2)c2ccccc2c1=O
inactive: [1] > 100 µM | [2] > 100 µM | [3] 27.9 µM | [4] 34.6 µM | [5] > 100 µM | [6] 83.9 µM | [7] > 100 µM | [8] 68.5 µM | [9] > 100 µM | [10] 51.5 µM | [11] 92 µM | [12] > 100 µM | [13] > 100 µM | [14] > 100 µM | [15] > 100 µM | [16] 50.8 µM | [17] > 100 µM | [18] 71.8 µM

CCOc1ccccc1NC(=O)C(=O)C(C(=O)c1ccc2ccccc2c1)C1OC(=O)c2ccccc21 (stereo unspecified)
inactive: [1] 7.78 µM | [2] 14.3 µM | [3] 8.22 µM | [4] 14.8 µM | [5] 10.7 µM | [6] 9.2 µM | [7] 13.4 µM | [8] 28.6 µM | [9] 13 µM | [10] 12.7 µM | [11] 8.49 µM | [12] 7.08 µM | [13] 10.4 µM | [14] 10.6 µM | [15] 8.77 µM | [16] 6.64 µM | [17] 13.7 µM | [18] 12.7 µM

Cc1ccc(NC(=O)C(=O)C(C(=O)/C=C/c2ccccc2)C2OC(=O)c3ccccc32)c(C)c1 (stereo unspecified)
inactive: [1] > 100 µM | [2] > 100 µM | [3] > 100 µM | [4] > 100 µM | [5] > 100 µM | [6] > 100 µM | [7] > 100 µM | [8] > 100 µM | [9] > 100 µM | [10] > 100 µM | [12] > 100 µM | [13] > 100 µM | [14] > 100 µM | [15] > 100 µM | [16] > 100 µM | [17] > 100 µM | [18] > 100 µM

O=C1OC2C=CC1C1(CCOC1=O)C2 (stereo unspecified)
inactive: [1] > 100 µM | [2] > 100 µM | [3] > 100 µM | [4] > 100 µM | [5] > 100 µM | [6] > 100 µM | [7] > 100 µM | [9] 48.8 µM | [10] > 100 µM | [11] > 100 µM | [12] > 100 µM | [13] > 100 µM | [14] > 100 µM | [15] 46.8 µM | [16] > 100 µM | [17] > 100 µM | [18] > 100 µM

O=C1NC(=S)NC(=O)C1=CC1CC1
inactive: [1] > 100 µM | [2] > 100 µM | [3] > 100 µM | [4] > 100 µM | [5] > 100 µM | [6] > 100 µM | [7] > 100 µM | [8] > 100 µM | [9] > 100 µM | [11] > 100 µM | [12] > 100 µM | [13] > 100 µM | [14] > 100 µM | [15] 46.3 µM | [16] > 100 µM | [17] > 100 µM | [18] > 100 µM

c1ccc(SC(CCCCC(Sc2ccccc2)Sc2ccccc2)Sc2ccccc2)cc1
inactive: [1] > 100 µM | [2] > 100 µM | [3] > 100 µM | [4] > 100 µM | [5] > 100 µM | [6] > 100 µM | [7] > 100 µM | [10] > 100 µM | [11] > 100 µM | [12] > 100 µM | [13] > 100 µM | [14] > 100 µM | [15] > 100 µM | [16] > 100 µM | [17] > 100 µM | [18] > 100 µM
